Assay results published in patent US10952952B2, “Skin lightening composition” (Conopco, Inc., priority 2015, dated 2021).

Key:
Assay type in all cases: cell-based
[1] = system: Human primary melanocytes; assay: Melanin Content Assay (MCA); conditions: for inhibition at 5000 µM / inhibition at 10000 µM: Homo sapiens, Melanocyte, 72 hours, vs untreated cells, read-out: % Inhibition in Melanin Synthesis (Mean ± SD); for inhibition at 5000 µM: 5 mM; for inhibition at 10000 µM: 10 mM
Protocol: Human primary melanocytes were grown in melanocytes growth medium (MGM) with human melanocyte growth supplement. 500 μL/well (5×10^4 cells/well) of this solution was plated in a 24 wells plate and incubated in an incubator (Thermo Scientific, Model 3111) at 37° C. with 5% CO2 atmosphere. After 24 hours of incubation, cell cultures were treated with the lead actives dissolved in water. The control was cells treated with the vehicle (water) alone. The cells were again incubated for 72 hours in an incubator (Thermo Scientific, Model 3111; conditions: 5% CO2, at 37° C.). At the end of the incubation the culture medium was replaced with 120μl/well of MCA reagent ([…] DMSO in 1N NaOH) and incubated for 1 hour at 60° C. in a shaker incubator. The supernatant was then transferred to a 384 well plate. The absorbance was measured spectrophotometric at 405 nm with a micro plate reader (GEnios Pro, Tecan). The spectrophotometric OD at 405 nm for untreated cells (NO active) was considered as 100% melanin content. In comparison to the untreated cells, the percentage inhibition of the treated cell samples were calculated.

[2] = system: human primary melanocytes and HaCat keratinocytes; assay: Melanosome Transfer Assay (MTA), Example 2; conditions: 5 mM, 72 hours co-culture, read-out: % inhibition in keratinocytes containing melanosome (Mean ± SD)
Protocol: 1.3×10^4 cells of human primary melanocytes (C-202-5C, Lonza) prepared in culture medium (MGM:KGM=1:1) and 2.6×10^4 HaCat keratinocytes prepared in culture medium (MGM:KGM=1:1) were mixed together and plated in a 48 well plate and incubated in an tissue culture incubator (Thermo Scientific, Model 3111) at 37° C. with 5% CO2 atmosphere. After 4 hours of incubation, co-cultures were treated (added) with the samples and again incubated for 72 hours in the same incubator under the same conditions. After culturing for required period (72 hours), the cells were prepared for flow cytometry analysis by following the procedure as set out below: • 1. […]
FACS (Florescence activated cell sorter) was prepared by adding 0.1% Saponin and >0.05% (0.05% wt/volume) Fetal Bovine serum in PBS mixed with Alexa 488 conjugated goat anti-Trp1 antibody (TRP1 Alexa 488 (TRP1, tyrosinase related protein is an specific melanosome marker protein, Santacruz, catalog No: sc-10443) (1 μL/100 μL) and anti-pan cytokeratin antibody (pan cytokeratin, cytokeratin is a specific marker for keratinocytes) PE, Santacruz, catalog No: sc-8018) (1 μL/100 μL). […] The cell pellets were suspended in PBS and transferred to round bottom 96 wells plate and analysed by flow cytometry (BD Biosciences, Model—BD Facscalibur with BD HTS) Calculation of Melanosome Transfer (% Transfer): […]

[3] = system: human primary melanocytes and HaCat keratinocytes; assay: Melanosome Transfer Assay (MTA), Example 3; conditions: 72 hours co-culture; for % Inhibition in melanosome transfer: 15 mM; for inhibition at 5000 µM / inhibition at 10000 µM: Homo sapiens, HaCaT; for inhibition at 5000 µM: 5 mM; for inhibition at 10000 µM: 10 mM
Protocol: 1.3×10^4 cells of human primary melanocytes (C-202-5C, Lonza) prepared in culture medium (MGM:KGM=1:1) and 2.6×10^4 HaCat keratinocytes prepared in culture medium (MGM:KGM=1:1) were mixed together and plated in a 48 well plate and incubated in an tissue culture tissue culture incubator (Thermo Scientific, Model 3111) at 37° C. with 5% CO2 atmosphere. After 4 hours of incubation, co-cultures were treated with the samples and again incubated for 72 hours in the same incubator under the same conditions. After culturing for required period (72 hours), the cells were prepared for flow cytometry analysis by following the procedure as set out below: • 1. Cells were isolated from 48 wells plate into a V-bottom plate (Torson, 941396) with 200 μl of trypsin EDTA buffer and the trypsin activity was neutralized with 200 μl of trypsin neutralizer and pelleted down to 350 g using a cold centrifuge (Plasto Crafts, Model no: Roat 4R-V/FM). • 2. To the pellet, 100 μl of 1% para-formaldehyde was added and incubated for 10 minutes on ice. • 3. Cells were then centrifuged (1000 G) with 100 μl of phosphate buffer saline (PBS) for 10 minutes and the pellet was used for staining with a solution as stated in below step 4. The PBS was prepared by adding 4 g sodium chloride, 0.1 g potassium chloride, 0.58 g disodium hydrogen phosphate and 0.1 g potassium dihydrogen phosphate into 500 ml of autoclaved Mili-Q water.
FACS buffer (Florescence activated cell sorter) was prepared by adding 0.1% Saponin and >0.05% (0.05% wt/volume) Fetal Bovine serum in PBS mixed with Alexa 488 conjugated goat anti-Trp1 antibody (TRP1 Alexa 488 (TRP1, tyrosinase related protein is an specific melanosome marker protein, Santacruz, catalog No: sc-10443) (1 μL/100 μL) and anti-pan cytokeratin antibody (pan cytokeratin, cytokeratin is a specific marker for keratinocytes) PE, Santacruz, catalog No: sc-8018) (1 μL/100 μL). The above mention FACS buffer was added to the pellet in each well (100 μL/well) and incubated for 60 minutes on ice. • 4. The cells were then washed with PBS and centrifuged down to ˜1000 G using a cold centrifuge (Plasto crafts, Roat 4R-V/FM) • 5. The cell pellets were suspended in PBS and transferred to round bottom 96 wells plate and analyzed by flow cytometry (BD Biosciences, Model—BD Facs calibur with BD HTS) Calculation of Melanosome Transfer (% Transfer):
Keratinocytes containing transferred melanosomes were detected by flow cytometry analysis.
The % transfer in untreated cells (NO active) was considered as 100%. In comparison to the untreated cells, the percentage transfer of the treated cell samples were calculated.

| Structure (SMILES) | inhibition at 5000 µM [1] [%] | inhibition at 10000 µM [1] [%] | reduction of melanin content in primary human melanocytes ([1]; niacinamide by itself, at 5 mM and 10 mM) | inhibition at 5000 µM [2] [%] | % Inhibition in melanosome transfer [3] | inhibition at 5000 µM [3] [%] | inhibition at 10000 µM [3] [%] |
| --- | --- | --- | --- | --- | --- | --- | --- |
| NC(=O)c1cccnc1 [Niacinamide, pyridine-3-carboxamide] | 3 ± 0.4 | 8 ± 2.3 | modest reduction | 15.1 ± 0.4 | cell death | 16.5 | 25 |
| NC(=O)c1ccccn1 [Picolinamide, pyridine 2-carboxamide] | 14 ± 0.9 | 23 ± 3.3 |  |  | cell death | -8 | 18 |
